Measured values from patent US20250340577A1, “BETA-LACTOMASE INHIBITORS AND USES THEREOF” (Case Western Reserve University, priority 2021, published 2025).
Where two headings read alike, the source gives them in different places.

Tests used:
[1] = tested on: E. coli DH10B pBC-SK SHV-2; experiment: MIC with cefepime, agar microdilution, CLSI; format: cell-based; settings: compound fixed at 4 ug/ml
Procedure: (§1) Minimum inhibitory concentration (MIC) of MB076 and derivatives (PCF_038-043) in combination with cefepime.
(§2) MICs were determined by the Agar microdilution method, following CLSI guidelines. Compounds were tested at fixed concentration of 4 ug/ml in combination with cefepime.

E. coli pLTCF1 = experiment: MIC with cefepime, agar microdilution, CLSI; format: cell-based; settings: compound fixed at 4 ug/ml; CTX-M group 9
Procedure: as §1, §2

K. pneumoniae 253 = experiment: MIC with cefepime, agar microdilution, CLSI; format: cell-based; settings: compound fixed at 4 ug/ml; TEM-12, SHV-5, CTX-M
Procedure: as §1, §2

K. pneumoniae ST258 C3 = experiment: MIC with cefepime, agar microdilution, CLSI; format: cell-based; settings: compound fixed at 4 ug/ml; KPC-3
Procedure: as §1, §2

[2] = tested on: Klebsiella pneumonia/BAA-1705; experiment: MIC of MB076 alone or in combination with cefepime or meropenem; format: cell-based; settings: Klebsiella pneumoniae, BAA1705; single agent; read-out: MIC
Procedure: as §2

[3] = tested on: Klebsiella pneumonia/FDA-CDC AR-BANK#0097; experiment: as above; format: cell-based; settings: Klebsiella pneumoniae; single agent; read-out: MIC
Procedure: as §2

[4] = tested on: Klebsiella pneumonia/FDA-CDC AR-BANK#0098; experiment: as above; format: cell-based; settings: Klebsiella pneumoniae; single agent; read-out: MIC
Procedure: as §2

[5] = format: in vivo; settings: for Abdominal tone / Body weight after 1° dose / Body weight after 4° dose / Limb tone / Vocalization: QID q6h; for Piloerection: animals of 4, after 4° dose; for Vocalization: animals of 4
Procedure: A maximum tolerable dose (MTD) assessment was conducted to evaluate the tolerability of MB076 with meropenem and cilastatin combination. Neutropenic uninfected female ICR mice were used. Meropenem combined with cilastatin was subcutaneously (SC) administered followed by intravenous (IV) administration of MB076 within 10 min. Doses were administered four times (QID) with 6 h intervals (q6h) for one day. Animals were monitored for acute symptoms after the first dose administration and cage side observations were recorded for the subsequent QID doses. Moreover, the body weight of each animal was recorded daily.

[6] = Single dose IV PK in plasma and thigh homogenate, thigh infection model; format: in vivo, mice; settings: for AUC(0-inf) / AUC(0-t) / C0 / clearance / half-life / Vd: female, ICR, mouse; for Vd: read-out: Vss
Procedure: (§3) A single dose PK study with MB_076 has been conducted to evaluate antibiotic exposure over time in plasma samples and thigh homogenates following a single dose IV administration in K. pneumoniae AR-BANK #0098 (KPC-2) thigh infection model with neutropenic female ICR mice. Among the PK parameters, t1/2, C0, AUClast, AUCINF, Vss and CL were evaluated (Table 7), while for PD parameters, C0/MIC, AUClast/MIC and T>MIC were calculated (Table 8). In particular, the % time over the minimum inhibitory concentration (T>MIC) was calculated for all dose groups to determine the impact of MB076 efficacy in this animal model. Plots of concentration in plasma and thigh homogenate versus time were created and the linearity of the resulting PK parameters was assessed.

[7] = tested on: K. pneumoniae AR-BANK #0098 (KPC-2); format: in vivo; settings: for T > MIC / Time High / Time Low: female, ICR, mouse, in vivo, iv
Procedure: as §3

[8] = MEM 500 mg/Kg + cilastatin 200 mg/Kg (SC) + MB076 25 mg/Kg (IV)
[9] = MEM 500 mg/Kg + cilastatin 200 mg/Kg (SC) + MB076 50 mg/Kg (IV)
[10] = MEM 1000 mg/Kg + cilastatin 200 mg/Kg (SC) + MB076 25 mg/Kg (IV)
[11] = MEM 1000 mg/Kg + cilastatin 200 mg/Kg (SC) + MB076 50 mg/Kg (IV)
[12] = MEM 1000 mg/Kg + cilastatin 200 mg/Kg (SC) + MB076 100 mg/Kg (IV)
[13] = plasma, 12.5 mg/kg IV single dose
[14] = plasma, 25 mg/kg IV single dose
[15] = plasma, 50 mg/kg IV single dose
[16] = plasma, 100 mg/kg IV single dose
[17] = thigh homogenate, 12.5 mg/kg IV single dose
[18] = thigh homogenate, 25 mg/kg IV single dose
[19] = thigh homogenate, 50 mg/kg IV single dose
[20] = thigh homogenate, 100 mg/kg IV single dose

Nc1nnc(SCC(=O)NC(Cn2cc(C(=O)O)nn2)B(O)O)s1 (centres unmarked) [MB076]
MIC of cefepime in combination with compound [1]: < 0.25 µg/mL
MIC of cefepime in combination with compound (E. coli pLTCF1): < 0.25 µg/mL
MIC of cefepime in combination with compound (K. pneumoniae 253): 8 µg/mL
MIC of cefepime in combination with compound (K. pneumoniae ST258 C3): 1 µg/mL
MIC [2]: > 32 µg/mL
MIC [3]: > 32 µg/mL
MIC [4]: > 32 µg/mL
Abdominal tone [5, 8]: Mild
Body weight after 1° dose [5, 8]: 23
Body weight after 4° dose [5, 8]: 22
Limb tone [5, 8]: Mild
Abdominal tone [5, 9]: increased
Body weight after 1° dose [5, 9]: 23
Body weight after 4° dose [5, 9]: 22.2
Limb tone [5, 9]: Mild
Abdominal tone [5, 10]: Mild
Body weight after 1° dose [5, 10]: 23.2
Body weight after 4° dose [5, 10]: 21.7
Limb tone [5, 10]: Mild
Abdominal tone [5, 11]: Mild
Body weight after 1° dose [5, 11]: 23
Body weight after 4° dose [5, 11]: 22
Limb tone [5, 11]: Mild
Abdominal tone [5, 12]: Mild
Body weight after 1° dose [5, 12]: 23
Body weight after 4° dose [5, 12]: 22
Limb tone [5, 12]: increased and Mild
Acute toxicity or mortality ([5]; all tested dose groups, MB076 IV with meropenem + cilastatin SC, QID q6h one day, neutropenic uninfected female ICR mice): No acute toxicity or mortality was observed
Piloerection [5, 8]: 4/4 after
Piloerection [5, 9]: 4/4 after
Piloerection [5, 10]: 4/4 after
Piloerection [5, 11]: 4/4 after
Piloerection [5, 12]: 4/4 after
Vocalization [5, 8]: 1/4
Vocalization [5, 9]: 0/4
Vocalization [5, 10]: 2/4
Vocalization [5, 11]: 3/4
Vocalization [5, 12]: 0/4
AUC(0-inf) [6, 13]: 7200 ng·h/mL
AUC(0-t) [6, 13]: 7100 ng·h/mL
C0 [6, 13]: 35.6 µg/mL
clearance [6, 13]: 29.1 mL/min/kg
half-life [6, 13]: 33.6 min
Vd [6, 13]: 0.65 L/kg
AUC(0-inf) [6, 14]: 17800 ng·h/mL
AUC(0-t) [6, 14]: 17600 ng·h/mL
C0 [6, 14]: 84 µg/mL
clearance [6, 14]: 23.4 mL/min/kg
half-life [6, 14]: 36.6 min
Vd [6, 14]: 0.8 L/kg
AUC(0-inf) [6, 15]: 39100 ng·h/mL
AUC(0-t) [6, 15]: 39000 ng·h/mL
C0 [6, 15]: 207 µg/mL
clearance [6, 15]: 21.3 mL/min/kg
half-life [6, 15]: 25.8 min
Vd [6, 15]: 0.35 L/kg
AUC(0-inf) [6, 16]: 104000 ng·h/mL
AUC(0-t) [6, 16]: 103000 ng·h/mL
C0 [6, 16]: 638 µg/mL
clearance [6, 16]: 16.1 mL/min/kg
half-life [6, 16]: 25.8 min
Vd [6, 16]: 0.21 L/kg
AUC(0-inf) [6, 17]: 1000 ng·h/mL
AUC(0-t) [6, 17]: 1000 ng·h/mL
C0 [6, 17]: 6.3 µg/mL
half-life [6, 17]: 14.4 min
Vd [6, 17]: 2.96 L/kg
AUC(0-inf) [6, 18]: 1800 ng·h/mL
AUC(0-t) [6, 18]: 1700 ng·h/mL
C0 [6, 18]: 17 µg/mL
half-life [6, 18]: 6.6 min
Vd [6, 18]: 1.38 L/kg
AUC(0-inf) [6, 19]: 6300 ng·h/mL
AUC(0-t) [6, 19]: 6300 ng·h/mL
C0 [6, 19]: 34 µg/mL
half-life [6, 19]: 12.6 min
Vd [6, 19]: 1.76 L/kg
AUC(0-inf) [6, 20]: 17300 ng·h/mL
AUC(0-t) [6, 20]: 17200 ng·h/mL
C0 [6, 20]: 108 µg/mL
half-life [6, 20]: 15 min
Vd [6, 20]: 1.07 L/kg
Linearity of C0 and AUClast with dose ([6]; plasma and thigh homogenates, 12.5-100 mg/kg IV): correlated linearly with dose
T > MIC ([7]; 12.5 mg/kg): 1.69%
Time High ([7]; 12.5 mg/kg): 0.40 h
Time Low ([7]; 12.5 mg/kg): 23.60 h
T > MIC ([7]; 12.5 mg/kg, 24 h): 0.24%
Time High ([7]; 12.5 mg/kg, 24 h): 0.06 h
Time Low ([7]; 12.5 mg/kg, 24 h): 23.94 h
T > MIC ([7]; 50 mg/kg): 1.75%
Time High ([7]; 50 mg/kg): 0.42 h
T > MIC ([7]; 50 mg/kg, 24 h): 3.89%
Time High ([7]; 50 mg/kg, 24 h): 0.93 h
T > MIC ([7]; 100 mg/kg): 2.72%
Time High ([7]; 100 mg/kg): 0.65 h
Time Low ([7]; 100 mg/kg): 23.35 h
T > MIC ([7]; 100 mg/kg, 24 h): 4.51%
Time High ([7]; 100 mg/kg, 24 h): 1.08 h
Time Low ([7]; 100 mg/kg, 24 h): 22.92 h
AUClast/MIC ([7]; plasma, 12.5 mg/kg IV): 1.77 h
AUClast/MIC ([7]; plasma, 25 mg/kg IV): 4.41 h
AUClast/MIC ([7]; plasma, 50 mg/kg IV): 9.75 h
AUClast/MIC ([7]; plasma, 100 mg/kg IV): 25.81 h
AUClast/MIC ([7]; thigh, 12.5 mg/kg IV): 0.25 h
AUClast/MIC ([7]; thigh, 25 mg/kg IV): 0.43 h
AUClast/MIC ([7]; thigh, 50 mg/kg IV): 1.56 h
AUClast/MIC ([7]; thigh, 100 mg/kg IV): 4.30 h
